Laboratory results published in ChEMBL document CHEMBL1126403, “Azaheteroaromatic ethers as carbonyl bioisosteres. Synthesis and evaluation of a novel class of 5-HT3 receptor antagonists” (Bioorg Med Chem Lett, 1992).

How the values were obtained:
[1] = molecular target: T1, Serotonin 3 (5-HT3) receptor (Rattus norvegicus, UniProt P35563+Q9JJ16); test: Binding affinity was evaluated in vitro by displacement of [3H]zacopride radioligand from 5-hydroxytryptamine 3 receptor; format: protein-complex assay
T1 sequence (P35563 whole entry): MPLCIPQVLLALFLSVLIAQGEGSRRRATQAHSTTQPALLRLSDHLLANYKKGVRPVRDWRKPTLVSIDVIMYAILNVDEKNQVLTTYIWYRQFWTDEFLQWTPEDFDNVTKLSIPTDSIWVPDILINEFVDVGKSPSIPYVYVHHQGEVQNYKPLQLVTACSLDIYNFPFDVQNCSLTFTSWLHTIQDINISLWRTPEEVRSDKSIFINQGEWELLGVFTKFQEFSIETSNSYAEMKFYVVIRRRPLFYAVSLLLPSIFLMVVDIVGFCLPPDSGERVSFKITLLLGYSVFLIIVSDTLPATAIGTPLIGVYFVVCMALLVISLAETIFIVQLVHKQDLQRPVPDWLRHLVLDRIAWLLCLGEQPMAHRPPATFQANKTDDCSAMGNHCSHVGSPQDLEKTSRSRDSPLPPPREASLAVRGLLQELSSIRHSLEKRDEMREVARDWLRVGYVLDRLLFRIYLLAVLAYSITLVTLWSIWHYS
T1 sequence (Q9JJ16 whole entry): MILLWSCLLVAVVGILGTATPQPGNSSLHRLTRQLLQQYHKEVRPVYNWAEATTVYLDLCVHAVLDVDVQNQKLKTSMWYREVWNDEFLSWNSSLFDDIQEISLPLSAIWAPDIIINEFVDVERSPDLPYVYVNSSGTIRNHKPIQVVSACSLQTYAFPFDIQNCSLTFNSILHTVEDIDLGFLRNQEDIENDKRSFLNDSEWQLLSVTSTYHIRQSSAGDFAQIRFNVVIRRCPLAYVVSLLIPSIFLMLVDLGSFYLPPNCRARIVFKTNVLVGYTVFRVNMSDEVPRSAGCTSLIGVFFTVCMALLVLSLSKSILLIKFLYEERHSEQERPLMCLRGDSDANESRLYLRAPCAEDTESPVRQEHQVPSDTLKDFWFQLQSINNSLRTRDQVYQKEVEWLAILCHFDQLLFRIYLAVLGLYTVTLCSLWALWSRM

Rattus norvegicus = test: Compound was evaluated in vivo for its potency to antagonise serotonin 5-HT-inducedbradycardia in the anesthetized rat; format: functional

**Q.** `c1ccc2nc(OC3CN4CCC3CC4)ccc2c1` (stereo not drawn) was tested. Which IC50 [1] did it give?
**A.** Its IC50 is 0.048 µM.

**Q.** What about the Dose (Rattus norvegicus) of the same compound?
**A.** Its Dose is 3 mg/kg.

**Q.** `CN1C2CCC1CC(Oc1nc3ccccc3s1)C2` (stereo not drawn) was tested. Which IC50 [1] did it give?
**A.** Its IC50 is 0.0069 µM.

**Q.** And the Dose (Rattus norvegicus)?
**A.** Its Dose is 0.1 mg/kg.

**Q.** How did the IC50 [1] turn out when `CN1C2CCC1CC(Oc1ccc3ccccc3n1)C2` (stereo not drawn) was run?
**A.** The IC50 was 0.0396 µM.

**Q.** What about the Dose (Rattus norvegicus) of the same compound?
**A.** The Dose was 10 mg/kg.

**Q.** `CN1[C@@H]2CC[C@H]1C[C@@H](OC(=O)c1cc(Cl)cc(Cl)c1)C2` [BEMESETRON] was tested. Which IC50 [1] did it give?
**A.** The IC50 was 0.0426 µM.

**Q.** What about the Dose (Rattus norvegicus) of the same compound?
**A.** The Dose was 0.1 mg/kg.

**Q.** `Cc1nccn1CC1CCc2c(c3ccccc3n2C)C1=O` (stereo not drawn) [ONDANSETRON] was tested. Which Dose (Rattus norvegicus) did it give?
**A.** Its Dose is 0.01 mg/kg.

**Q.** For `CN1[C@@H]2CC[C@H]1C[C@@H](OC(=O)c1c[nH]c3ccccc13)C2` [TROPISETRON], which IC50 [1] is on record?
**A.** Its IC50 is 0.0023 µM.

**Q.** And the Dose (Rattus norvegicus)?
**A.** Its Dose is 0.01 mg/kg.

**Q.** `COc1cc(N)c(Cl)cc1C(=O)NC1CN2CCC1CC2` (stereo not drawn) [ZACOPRIDE] was tested. Which IC50 [1] did it give?
**A.** The IC50 was 0.0022 µM.

**Q.** And the Dose (Rattus norvegicus)?
**A.** The Dose was 0.01 mg/kg.
